# According to patent US9593122B2, “Substituted pyrazolylpyrazole derivative and use of same as herbicide” (KYOYU AGRI CO., LTD., priority 2013, dated 2017):
# Key:
# Assay type in all cases: in vivo
# Monochoria vaginalis = assay: Paddy herbicidal activity test; details: irrigated paddy pot, 30 days
# Protocol: (§1) Rice paddy soil was filled into a 1/10000 are pot followed by the addition of suitable amounts of water and chemical fertilizer, kneading, seeding with Echinochloa crus-galli, Monochoria vaginalis and Scirpus juncoides and maintaining in an irrigated state at a water depth of 3 cm.
# (§2) Wettable powder of Target Compound (I) shown in Table 1 prepared in compliance with the preparation examples were diluted with a suitable amount of water, rice plants in the 2.0 leaf stage were transplanted during 3.5 leaf stage of Echinochloa crus-galli, and treated by dropping in chemical in the prescribed amount per are using a pipette.
# (§3) After treating for 30 days in a glass greenhouse at an average atmospheric temperature of 30° C., the herbicidal efficacy thereof was investigated.
# (§4) Evaluation of herbicidal efficacy was carried out by comparing growth inhibition rate (%) with an untreated group, while evaluation of phytotoxicity was carried out by comparing growth inhibition rate (%) with the state of a complete eradication group, and were evaluated at 11 levels indicated below.
# Echinochloa crus-galli = assay: Paddy herbicidal activity test; details: irrigated paddy pot, treated at 3.5 leaf stage of Echinochloa crus-galli, 30 days
# Protocol: as §1, §2, §3, §4
# Scirpus juncoides = assay: Paddy herbicidal activity test; details: irrigated paddy pot, 30 days
# Protocol: as §1, §2, §3, §4
# Digitaria ciliaris [1] = assay: Farming soil treatment test; details: soil surface spray prior to weed growth, 30 days
# Protocol: (§5) Field soil was filled into a 1/6000 are pot followed by seeding with Digitaria ciliaris, Chenopodium album and Amaranthus retroflexus and covering with soil.
# (§6) Wettable powder of compounds of formula (I) shown in Table 1 prepared in compliance with the preparation examples were diluted with water to the prescribed amount of chemical and uniformly sprayed onto each soil surface layer using 10 liters of sprayed water per are prior to weed growth following seeding.
# as §3
# (§7) Evaluation of herbicidal efficacy is carried out in the same manner as the above-mentioned Test Example 1.
# Chenopodium album [2] = assay: Farming soil treatment test; details: soil surface spray prior to weed growth, 30 days
# Protocol: as §5, §6, §3, §7
# Amaranthus retroflexus [3] = assay: Farming soil treatment test; details: soil surface spray prior to weed growth, 30 days
# Protocol: as §5, §6, §3, §7
# Digitaria ciliaris [4] = assay: Weed foliar treatment test; details: foliar spray at 1.0 to 2.0 leaf stage of Digitaria ciliaris, 3 weeks
# Protocol: (§8) Soil was filled into a 1/6000 are pot followed by seeding with Digitaria ciliaris, Chenopodium album and Amaranthus retroflexus, covering with soil, and cultivating in a glass greenhouse at an average atmospheric temperature of 25° C.
# (§9) Wettable powder of Target Compound (I) shown in Table 1 prepared in compliance with the preparation examples were diluted with water to the prescribed amount of chemical and uniformly sprayed onto the weeds using 15 liters of sprayed water per are when Digitaria ciliaris had grown to the 1.0 to 2.0 leaf stage.
# (§10) After treating for 3 weeks in a glass greenhouse at an average atmospheric temperature of 25° C., the herbicidal efficacy thereof was investigated.
# (§11) Evaluation of herbicidal efficacy was carried out in the same manner as the above-mentioned Test Example 1.
# Chenopodium album [5] = assay: Weed foliar treatment test; details: foliar spray, 3 weeks
# Protocol: as §8, §9, §10, §11
# Amaranthus retroflexus [6] = assay: Weed foliar treatment test; details: foliar spray, 3 weeks
# Protocol: as §8, §9, §10, §11
compound,measurement,setting,value
CC=CCNc1c(C#N)cnn1-c1nn2c(c1Cl)CCCC2 (mixture of isomers) [Compound 12],Monochoria vaginalis herbicidal efficacy (growth inhibition level),Monochoria vaginalis; 1g a.i./10a,9 (9: 90% to less than 100%)
same,Monochoria vaginalis herbicidal efficacy (growth inhibition level),Monochoria vaginalis; 5g a.i./10a,10 (10: 100%)
same,Echinochloa crus-galli herbicidal efficacy (growth inhibition level),Echinochloa crus-galli; 1g a.i./10a,9 (9: 90% to less than 100%)
same,Echinochloa crus-galli herbicidal efficacy (growth inhibition level),Echinochloa crus-galli; 5g a.i./10a,10 (10: 100%)
same,Scirpus juncoides herbicidal efficacy (growth inhibition level),Scirpus juncoides; 1g a.i./10a,8 (8: 80% to less than 90%)
same,Scirpus juncoides herbicidal efficacy (growth inhibition level),Scirpus juncoides; 5g a.i./10a,9 (9: 90% to less than 100%)
same,Digitaria ciliaris herbicidal efficacy (growth inhibition level),Digitaria ciliaris [1]; 5g a.i./10a,10 (10: 100%)
same,Digitaria ciliaris herbicidal efficacy (growth inhibition level),Digitaria ciliaris [1]; 10g a.i./10a,10 (10: 100%)
same,Chenopodium album herbicidal efficacy (growth inhibition level),Chenopodium album [2]; 5g a.i./10a,10 (10: 100%)
same,Chenopodium album herbicidal efficacy (growth inhibition level),Chenopodium album [2]; 10g a.i./10a,10 (10: 100%)
same,Amaranthus retroflexus herbicidal efficacy (growth inhibition level),Amaranthus retroflexus [3]; 5g a.i./10a,10 (10: 100%)
same,Amaranthus retroflexus herbicidal efficacy (growth inhibition level),Amaranthus retroflexus [3]; 10g a.i./10a,10 (10: 100%)
same,Digitaria ciliaris herbicidal efficacy (growth inhibition level),Digitaria ciliaris [4]; 5g a.i./10a,10 (10: 100%)
same,Digitaria ciliaris herbicidal efficacy (growth inhibition level),Digitaria ciliaris [4]; 10g a.i./10a,10 (10: 100%)
same,Chenopodium album herbicidal efficacy (growth inhibition level),Chenopodium album [5]; 5g a.i./10a,10 (10: 100%)
same,Chenopodium album herbicidal efficacy (growth inhibition level),Chenopodium album [5]; 10g a.i./10a,10 (10: 100%)
same,Amaranthus retroflexus herbicidal efficacy (growth inhibition level),Amaranthus retroflexus [6]; 5g a.i./10a,10 (10: 100%)
same,Amaranthus retroflexus herbicidal efficacy (growth inhibition level),Amaranthus retroflexus [6]; 10g a.i./10a,10 (10: 100%)
CC=CCN(C(=O)C(F)(F)F)c1c(C#N)cnn1-c1nn2c(c1Cl)CCCC2 (mixture of isomers) [Compound 24],Monochoria vaginalis herbicidal efficacy (growth inhibition level),Monochoria vaginalis; 1g a.i./10a,8 (8: 80% to less than 90%)
same,Monochoria vaginalis herbicidal efficacy (growth inhibition level),Monochoria vaginalis; 5g a.i./10a,9 (9: 90% to less than 100%)
same,Echinochloa crus-galli herbicidal efficacy (growth inhibition level),Echinochloa crus-galli; 1g a.i./10a,9 (9: 90% to less than 100%)
same,Echinochloa crus-galli herbicidal efficacy (growth inhibition level),Echinochloa crus-galli; 5g a.i./10a,10 (10: 100%)
same,Scirpus juncoides herbicidal efficacy (growth inhibition level),Scirpus juncoides; 1g a.i./10a,8 (8: 80% to less than 90%)
same,Scirpus juncoides herbicidal efficacy (growth inhibition level),Scirpus juncoides; 5g a.i./10a,9 (9: 90% to less than 100%)
same,Digitaria ciliaris herbicidal efficacy (growth inhibition level),Digitaria ciliaris [1]; 5g a.i./10a,10 (10: 100%)
same,Digitaria ciliaris herbicidal efficacy (growth inhibition level),Digitaria ciliaris [1]; 10g a.i./10a,10 (10: 100%)
same,Chenopodium album herbicidal efficacy (growth inhibition level),Chenopodium album [2]; 5g a.i./10a,10 (10: 100%)
same,Chenopodium album herbicidal efficacy (growth inhibition level),Chenopodium album [2]; 10g a.i./10a,10 (10: 100%)
same,Amaranthus retroflexus herbicidal efficacy (growth inhibition level),Amaranthus retroflexus [3]; 5g a.i./10a,10 (10: 100%)
same,Amaranthus retroflexus herbicidal efficacy (growth inhibition level),Amaranthus retroflexus [3]; 10g a.i./10a,10 (10: 100%)
same,Digitaria ciliaris herbicidal efficacy (growth inhibition level),Digitaria ciliaris [4]; 5g a.i./10a,10 (10: 100%)
same,Digitaria ciliaris herbicidal efficacy (growth inhibition level),Digitaria ciliaris [4]; 10g a.i./10a,10 (10: 100%)
same,Chenopodium album herbicidal efficacy (growth inhibition level),Chenopodium album [5]; 5g a.i./10a,10 (10: 100%)
same,Chenopodium album herbicidal efficacy (growth inhibition level),Chenopodium album [5]; 10g a.i./10a,10 (10: 100%)
same,Amaranthus retroflexus herbicidal efficacy (growth inhibition level),Amaranthus retroflexus [6]; 5g a.i./10a,10 (10: 100%)
same,Amaranthus retroflexus herbicidal efficacy (growth inhibition level),Amaranthus retroflexus [6]; 10g a.i./10a,10 (10: 100%)
N#Cc1cnn(-c2nn3c(c2Cl)CCCC3)c1N(C/C=C\Cl)C(=O)C(F)(F)F [Compound 21],Monochoria vaginalis herbicidal efficacy (growth inhibition level),Monochoria vaginalis; 1g a.i./10a,9 (9: 90% to less than 100%)
same,Monochoria vaginalis herbicidal efficacy (growth inhibition level),Monochoria vaginalis; 5g a.i./10a,9 (9: 90% to less than 100%)
same,Echinochloa crus-galli herbicidal efficacy (growth inhibition level),Echinochloa crus-galli; 1g a.i./10a,9 (9: 90% to less than 100%)
same,Echinochloa crus-galli herbicidal efficacy (growth inhibition level),Echinochloa crus-galli; 5g a.i./10a,9 (9: 90% to less than 100%)
same,Scirpus juncoides herbicidal efficacy (growth inhibition level),Scirpus juncoides; 1g a.i./10a,8 (8: 80% to less than 90%)
same,Scirpus juncoides herbicidal efficacy (growth inhibition level),Scirpus juncoides; 5g a.i./10a,10 (10: 100%)
same,Digitaria ciliaris herbicidal efficacy (growth inhibition level),Digitaria ciliaris [1]; 5g a.i./10a,10 (10: 100%)
same,Digitaria ciliaris herbicidal efficacy (growth inhibition level),Digitaria ciliaris [1]; 10g a.i./10a,10 (10: 100%)
same,Chenopodium album herbicidal efficacy (growth inhibition level),Chenopodium album [2]; 5g a.i./10a,10 (10: 100%)
same,Chenopodium album herbicidal efficacy (growth inhibition level),Chenopodium album [2]; 10g a.i./10a,10 (10: 100%)
same,Amaranthus retroflexus herbicidal efficacy (growth inhibition level),Amaranthus retroflexus [3]; 5g a.i./10a,10 (10: 100%)
same,Amaranthus retroflexus herbicidal efficacy (growth inhibition level),Amaranthus retroflexus [3]; 10g a.i./10a,10 (10: 100%)
same,Digitaria ciliaris herbicidal efficacy (growth inhibition level),Digitaria ciliaris [4]; 5g a.i./10a,10 (10: 100%)
same,Digitaria ciliaris herbicidal efficacy (growth inhibition level),Digitaria ciliaris [4]; 10g a.i./10a,10 (10: 100%)
same,Chenopodium album herbicidal efficacy (growth inhibition level),Chenopodium album [5]; 5g a.i./10a,10 (10: 100%)
same,Chenopodium album herbicidal efficacy (growth inhibition level),Chenopodium album [5]; 10g a.i./10a,10 (10: 100%)
same,Amaranthus retroflexus herbicidal efficacy (growth inhibition level),Amaranthus retroflexus [6]; 5g a.i./10a,10 (10: 100%)
same,Amaranthus retroflexus herbicidal efficacy (growth inhibition level),Amaranthus retroflexus [6]; 10g a.i./10a,10 (10: 100%)
C=C(Cl)CNc1c([N+](=O)[O-])cnn1-c1nn2c(c1Cl)CCCC2 [Compound 30],Monochoria vaginalis herbicidal efficacy (growth inhibition level),Monochoria vaginalis; 1g a.i./10a,9 (9: 90% to less than 100%)
same,Monochoria vaginalis herbicidal efficacy (growth inhibition level),Monochoria vaginalis; 5g a.i./10a,10 (10: 100%)
same,Echinochloa crus-galli herbicidal efficacy (growth inhibition level),Echinochloa crus-galli; 1g a.i./10a,9 (9: 90% to less than 100%)
same,Echinochloa crus-galli herbicidal efficacy (growth inhibition level),Echinochloa crus-galli; 5g a.i./10a,10 (10: 100%)
same,Scirpus juncoides herbicidal efficacy (growth inhibition level),Scirpus juncoides; 1g a.i./10a,8 (8: 80% to less than 90%)
same,Scirpus juncoides herbicidal efficacy (growth inhibition level),Scirpus juncoides; 5g a.i./10a,10 (10: 100%)
same,Digitaria ciliaris herbicidal efficacy (growth inhibition level),Digitaria ciliaris [1]; 5g a.i./10a,10 (10: 100%)
same,Digitaria ciliaris herbicidal efficacy (growth inhibition level),Digitaria ciliaris [1]; 10g a.i./10a,10 (10: 100%)
same,Chenopodium album herbicidal efficacy (growth inhibition level),Chenopodium album [2]; 5g a.i./10a,10 (10: 100%)
same,Chenopodium album herbicidal efficacy (growth inhibition level),Chenopodium album [2]; 10g a.i./10a,10 (10: 100%)
same,Amaranthus retroflexus herbicidal efficacy (growth inhibition level),Amaranthus retroflexus [3]; 5g a.i./10a,10 (10: 100%)
same,Amaranthus retroflexus herbicidal efficacy (growth inhibition level),Amaranthus retroflexus [3]; 10g a.i./10a,10 (10: 100%)
same,Digitaria ciliaris herbicidal efficacy (growth inhibition level),Digitaria ciliaris [4]; 5g a.i./10a,10 (10: 100%)
same,Digitaria ciliaris herbicidal efficacy (growth inhibition level),Digitaria ciliaris [4]; 10g a.i./10a,10 (10: 100%)
same,Chenopodium album herbicidal efficacy (growth inhibition level),Chenopodium album [5]; 5g a.i./10a,10 (10: 100%)
same,Chenopodium album herbicidal efficacy (growth inhibition level),Chenopodium album [5]; 10g a.i./10a,10 (10: 100%)
same,Amaranthus retroflexus herbicidal efficacy (growth inhibition level),Amaranthus retroflexus [6]; 5g a.i./10a,10 (10: 100%)
same,Amaranthus retroflexus herbicidal efficacy (growth inhibition level),Amaranthus retroflexus [6]; 10g a.i./10a,10 (10: 100%)
C=CCCN(C(=O)C(F)(F)F)c1c(C#N)cnn1-c1nn2c(c1Br)CCCC2 [Compound 50],Monochoria vaginalis herbicidal efficacy (growth inhibition level),Monochoria vaginalis; 1g a.i./10a,7 (7: 70% to less than 80%)
same,Monochoria vaginalis herbicidal efficacy (growth inhibition level),Monochoria vaginalis; 5g a.i./10a,9 (9: 90% to less than 100%)
same,Echinochloa crus-galli herbicidal efficacy (growth inhibition level),Echinochloa crus-galli; 1g a.i./10a,9 (9: 90% to less than 100%)
same,Echinochloa crus-galli herbicidal efficacy (growth inhibition level),Echinochloa crus-galli; 5g a.i./10a,10 (10: 100%)
same,Scirpus juncoides herbicidal efficacy (growth inhibition level),Scirpus juncoides; 1g a.i./10a,7 (7: 70% to less than 80%)
same,Scirpus juncoides herbicidal efficacy (growth inhibition level),Scirpus juncoides; 5g a.i./10a,8 (8: 80% to less than 90%)
C=C(Cl)CN(C(=O)C(F)(F)F)c1c(C#N)cnn1-c1nn2c(c1Br)CCCC2 [Compound 51],Monochoria vaginalis herbicidal efficacy (growth inhibition level),Monochoria vaginalis; 1g a.i./10a,8 (8: 80% to less than 90%)
same,Monochoria vaginalis herbicidal efficacy (growth inhibition level),Monochoria vaginalis; 5g a.i./10a,8 (8: 80% to less than 90%)
same,Echinochloa crus-galli herbicidal efficacy (growth inhibition level),Echinochloa crus-galli; 1g a.i./10a,9 (9: 90% to less than 100%)
same,Echinochloa crus-galli herbicidal efficacy (growth inhibition level),Echinochloa crus-galli; 5g a.i./10a,9 (9: 90% to less than 100%)
same,Scirpus juncoides herbicidal efficacy (growth inhibition level),Scirpus juncoides; 1g a.i./10a,8 (8: 80% to less than 90%)
same,Scirpus juncoides herbicidal efficacy (growth inhibition level),Scirpus juncoides; 5g a.i./10a,8 (8: 80% to less than 90%)
N#Cc1cnn(-c2nn3c(c2Br)CCCC3)c1N(C/C=C\Cl)C(=O)C(F)(F)F [Compound 53],Monochoria vaginalis herbicidal efficacy (growth inhibition level),Monochoria vaginalis; 1g a.i./10a,7 (7: 70% to less than 80%)
same,Monochoria vaginalis herbicidal efficacy (growth inhibition level),Monochoria vaginalis; 5g a.i./10a,8 (8: 80% to less than 90%)
same,Echinochloa crus-galli herbicidal efficacy (growth inhibition level),Echinochloa crus-galli; 1g a.i./10a,9 (9: 90% to less than 100%)
same,Echinochloa crus-galli herbicidal efficacy (growth inhibition level),Echinochloa crus-galli; 5g a.i./10a,10 (10: 100%)
same,Scirpus juncoides herbicidal efficacy (growth inhibition level),Scirpus juncoides; 1g a.i./10a,7 (7: 70% to less than 80%)
same,Scirpus juncoides herbicidal efficacy (growth inhibition level),Scirpus juncoides; 5g a.i./10a,8 (8: 80% to less than 90%)
